Measurements reported in patent publication US8742167B2, “Therapeutic formulations based on asiatic acid and selected salts thereof” (Shanghai Institute of Pharmaceutical Industry, priority 2008, dated 2014).
“And” between values parts separate entries of the source, which are not always exact repeats. Identical values can stand only once. “Also recorded” adds a separate entry of the source. Counter-ions that a name gives are not always drawn. Like-named read-outs stand apart in the source and are kept apart here. Marks after values point to notes of the source that are not given here.

Key:
[1] = tested on: TNF-α; assay: Serological test (ELISA kit) of TNF-α in rats of bleomycin-induced pulmonary fibrosis; assay type: in vivo, SD rats; conditions: serum; for TNF-α (2nd day) X ± SD: dosing from 2nd day; for TNF-α (7th day) X ± SD: dosing from 7th day
Experimental: TNF-α Kit, Human 96T ELISA kit imported by Shanghai Jingmei
(§1) Male SD rats, body weight 250-300 g. The animals were anesthetized with 3% seconal, laid flat and fixed onto the operating table. The necks of the animals were disinfected with alcohol and cut to expose tracheae. A needle was inserted via the space between tracheal rings centripetally, and 5 mg/kg of bleomycin was injected. The rats were kept upright and rotated, in order to keep the solution uniformly distributed in the lungs. Then the incisions were sutured.
(§2) After the rats regained consciousness, they were randomly grouped. The animals were divided into (i) a group receiving administration on the next day after establishing the model and (ii) a group receiving administration at 7 days after the model was established. Included were 27, 9, and 3 mg/kg p.o.×28 d asiatic acid groups, 0.6 mg/kg p.o.×28 d dexamethasone group, 36 mg/kg p.o.×28 d asiaticoside group, model group, and blank group. Normal saline was administered for the model and blank groups. On the 28th day after asiatic acid and asiaticoside administration, survival and weight ratio of lungs were measured; pathological examination and serological examination were performed.
(§3) Serum samples were prepared according to a standard protocol (centrifuged 3000 rpm, 10 minutes after collection) and were stored at −20° C. Testing was conducted in accordance with kit instructions.

[2] = tested on: Hydroxyproline; assay: Measured value of hydroxyproline in experiment of asiatic acid antagonizing fibrosis; assay type: in vivo, SD rats; design: Measured Value of Hydroxyproline (on 2nd day), single animals / Measured Value of Hydroxyproline (on 2nd day), X / Measured Value of Hydroxyproline (on 7th day), single animals / Measured Value of Hydroxyproline (on 7th day), X: unit not given here; conditions: for Measured Value of Hydroxyproline (on 2nd day), X / Measured Value of Hydroxyproline (on 7th day), X: group mean
Experimental: as §1, §2

[3] = tested on: bleomycin-induced pulmonary fibrosis in rats; assay: Lung weight index of bleomycin-induced pulmonary fibrosis in rats; assay type: in vivo, SD rats; conditions: for lung weight ratio (%): (lung weight/body weight)x100%
Experimental: as §1, §2
Effect of on lung weight index of bleomycin-induced pulmonary fibrosis in rats treated with asiatic acid Body weight and lung weight were measured after the rats were sacrificed. Lung weight ratio=(lung weight/body weight)×100%.

[4] = tested on: TFG-β; assay: Serological test (ELISA kit) of TFG-β in rats of bleomycin-induced pulmonary fibrosis; assay type: in vivo, SD rats; conditions: serum; for TFG-β (2nd day) X ± SD: dosing from 2nd day; for TFG-β (7th day) X ± SD: dosing from 7th day
Experimental: TFG-β Kit, Human 96T ELISA kit imported by Shanghai Jingmei
as §1, §2, §3

[5] = tested on: bleomycin-induced pulmonary fibrosis in rats; assay: Mortality during experiment days 7-28, bleomycin-induced pulmonary fibrosis in rats; assay type: in vivo, SD rats
Experimental: as §1, §2

[6] = tested on: Type III collagen; assay: Type III collagen content, bleomycin rat model; assay type: in vivo, SD rats
Experimental: as §1, §2

[7] = Solubility in water and methanol (saturated solutions, HPLC); assay type: physicochemical; conditions: for Solubility: single preparations (inj 1A-1C)
Experimental: Approximately 5 mg of asiatic acid were transferred into a 25 mL volumetric flask, and 1 mL, of methanol was added and mixed well, until the acid had dissolved in the methanol. The volumetric flask then was brought to volume with mobile phase and mixed well. [table] Saturated solutions obtained from starting material and salt in methanol and water were filtered and diluted accordingly with mobile phase. No dilution was performed for asiatic acid in water. Samples were prepared in triplicate except for the sodium salt prepared in methanol, for which two preparations were done.

[8] = tested on: pulmonary fibrosis induced by bleomycin in rats; assay: Pathological analysis of lung (HE staining; collagen fiber and elastic fiber dual staining); assay type: in vivo, SD rats; conditions: asiaticoside 36 mg/kg; administration on the next day after establishing model
Experimental: as §1, §2
The lung tissues were fixed in 10% formalin for 1 week. […] The thickness of sections was […]. Routine hematoxylin-eosin (HE) staining was performed. Dual special staining of collagen fibers and elastic fibers were conducted in order to detect the degree of fibrosis. The staining of the two groups of sections was observed and the results were as follows.

[9] = dexamethasone (0.6 mg/kg), individual rats 1-6
[10] = asiaticoside 36 mg/kg, individual rats 1-10

C[C@@H]1C[C@H]2[C@@H]3CCC4=CC(=O)C=C[C@]4(C)[C@@]3(F)[C@@H](O)C[C@]2(C)[C@@]1(O)C(=O)CO [Dexamethasone, reference compound]
TNF-α (2nd day) X ± SD ([1]; dexamethasone 0.6 mg/kg): 0.073 ± 0.006 OD value
TNF-α (7th day) X ± SD ([1]; dexamethasone 0.6 mg/kg): 0.060 ± 0.006 OD value
Measured Value of Hydroxyproline (on 2nd day), X ([2]; dexamethasone (0.6 mg/kg)): 23.45
Measured Value of Hydroxyproline (on 7th day), X ([2]; dexamethasone (0.6 mg/kg)): 27.35
Measured Value of Hydroxyproline (on 2nd day), single animals [2, 9]: 19.86 and 23.31 and 21.69 and 24.63 and 25.36 and 25.87
Measured Value of Hydroxyproline (on 7th day), single animals [2, 9]: 25.17 and 27.44 and 25.99 and 29.66 and 28.07 and 27.75
lung weight ratio (%) ([3]; dexamethasone 0.6 mg/kg, started 7 day after model established): 1.14%
lung weight ratio (%) ([3]; dexamethasone 0.6 mg/kg, started from the second day): 1.31%
lung weight (g) X ± SD ([3]; dexamethasone 0.6 mg/kg, 28-day administration started 7 day after model established): 2.05 ± 0.40 g
lung weight (g) X ± SD ([3]; dexamethasone 0.6 mg/kg, 28-day administration started from the second day): 2.06 ± 0.52 g
TFG-β (2nd day) X ± SD ([4]; dexamethasone 0.6 mg/kg): 0.751 ± 0.214 OD value
TFG-β (7th day) X ± SD ([4]; dexamethasone 0.6 mg/kg): 0.717 ± 0.197 OD value
remaining samples at the end of study ([5]; dexamethasone 0.6 mg/kg p.o. x 28 d, dosing started on 2nd day, 14 on day 7): 6
number of deaths ([5]; dexamethasone 0.6 mg/kg p.o. x 28 d, dosing started on 2nd day, days 7-28): 8
number of deaths ([5]; dexamethasone 0.6 mg/kg p.o. x 28 d, dosing started on 7th day): 7
remaining samples at the end of study ([5]; dexamethasone 0.6 mg/kg p.o. x 28 d, dosing started on 7th day, 13 in the group): 6
Type III collagen content X ± SD ([6]; Dex (0.6 mg/kg), treatment starting on Day 7): 0.518 ± 0.527

C[C@H]1[C@H](C)CC[C@]2(C(=O)O)CC[C@]3(C)C(=CC[C@@H]4[C@@]5(C)C[C@@H](O)[C@H](O)[C@@](C)(CO)[C@@H]5CC[C@]43C)[C@H]12 [Asiatic acid-Na salt NaOH, asiatic acid sodium salt]
Solubility ([7]; MeOH, sodium salt): 24080 µg/mL
Solubility ([7]; methanol, organic solvent or mixture, thermodynamic from solid, MeOH, read-out: Solubility): 25400 µg/mL
times more soluble than asiatic acid ([7]; water): ~228 times
Solubility ([7]; water, thermodynamic from solid, water, read-out: Solubility): 6860 µg/mL
Solubility ([7]; water, sodium salt): 6360 µg/mL and 7320 µg/mL

C[C@H]1[C@H](C)CC[C@]2(C(=O)O[C@@H]3O[C@H](CO[C@@H]4O[C@H](CO)[C@@H](O[C@@H]5O[C@H](C)[C@H](O)[C@@H](O)[C@H]5O)[C@H](O)[C@H]4O)[C@@H](O)[C@H](O)[C@H]3O)CC[C@]3(C)C(=CC[C@@H]4[C@@]5(C)C[C@@H](O)[C@H](O)[C@@](C)(CO)[C@@H]5CC[C@]43C)[C@H]12 [Asiaticoside, asiaticoside]
TNF-α (2nd day) X ± SD ([1]; asiaticoside 36 mg/kg): 0.064 ± 0.013 OD value
TNF-α (7th day) X ± SD ([1]; asiaticoside 36 mg/kg): 0.091 ± 0.027 OD value
Measured Value of Hydroxyproline (on 2nd day), X ([2]; asiaticoside 36 mg/kg): 24.11
Measured Value of Hydroxyproline (on 7th day), X ([2]; asiaticoside 36 mg/kg): 26.57
Measured Value of Hydroxyproline (on 2nd day), single animals [2, 10]: 28.56 and 28.69 and 19.63 and 25.34 and 28.11 and 20.54 and 25.36 and 19.47 and 25.25 and 20.11
Measured Value of Hydroxyproline (on 7th day), single animals [2, 10]: 28.19 and 24.36 and 28.17 and 24.69 and 29.1 and 25.11 and 25.91 and 24.97 and 29.69 and 25.55
serum levels of hydroxyproline ([2]; overall statement): significantly decrease bleomycin-induced fibrosis
lung weight ratio (%) ([3]; asiaticoside 36 mg/kg, started 7 day after model established): 0.80** %
lung weight ratio (%) ([3]; asiaticoside 36 mg/kg, started from the second day): 0.84** %
lung weight (g) X ± SD ([3]; asiaticoside 36 mg/kg, 28-day administration started 7 day after model established): 2.59 ± 0.33 g
lung weight (g) X ± SD ([3]; asiaticoside 36 mg/kg, 28-day administration started from the second day): 2.62 ± 0.38 g
lung weight to body weight ratio ([3]; starting on 2nd or 7th day, compared with the model group): significantly decrease bleomycin-induced lung fibrosis
TFG-β (2nd day) X ± SD ([4]; asiaticoside 36 mg/kg): 0.670 ± 0.155 OD value
TFG-β (7th day) X ± SD ([4]; asiaticoside 36 mg/kg): 1.181 ± 0.364 OD value
lung pathology, HE staining [8]: less serious than those of the model group
remaining samples at the end of study ([5]; asiaticoside 36 mg/kg p.o. x 28 d, dosing started on 2nd day, 14 on day 7): 12
number of deaths ([5]; asiaticoside 36 mg/kg p.o. x 28 d, dosing started on 2nd day, days 7-28): 2
number of deaths ([5]; asiaticoside 36 mg/kg p.o. x 28 d, dosing started on 7th day): 2
remaining samples at the end of study ([5]; asiaticoside 36 mg/kg p.o. x 28 d, dosing started on 7th day, 13 in the group): 11
survival / bleomycin-induced death ([5]; rats treated with bleomycin, treatment initiated one day or seven days after bleomycin): largely prevented bleomycin-induced death; also recorded: significantly enhance survival
serum levels of type III collagen ([6]; overall statement): significantly decrease bleomycin-induced fibrosis
